Where two headings read alike, the source gives them in different places. One block for each molecule: values may come before it.
Assays:
[1] = system: CAPAN-1 (a BRCA-2-mutated pancreatic cancer cell line); assay: Cell proliferation assay, three-day, CellTiter-Glo, CAPAN-1; assay type: cell-based; conditions: for IC50 / inhibition at 0.00508 µM / inhibition at 0.0152 µM / inhibition at 0.0457 µM / inhibition at […] / inhibition at 0.41 µM / inhibition at 1.23 µM / inhibition at 3.7 µM / inhibition at 11.11 µM / inhibition at 33.33 µM / inhibition at 100 µM: Homo sapiens; for inhibition at 0.00508 µM: CAPAN-1, 0.00508 uM; for inhibition at 0.0152 µM: CAPAN-1, 0.0152 uM; for inhibition at 0.0457 µM: CAPAN-1, 0.0457 uM; for inhibition at […]: CAPAN-1, 0.14 uM; for inhibition at 0.41 µM: CAPAN-1, 0.41 uM; for inhibition at 1.23 µM: CAPAN-1, 1.23 uM; for inhibition at 3.7 µM: CAPAN-1, 3.70 uM; for inhibition at 11.11 µM: CAPAN-1, 11.11 uM; for inhibition at 33.33 µM: CAPAN-1, 33.33 uM; for inhibition at 100 µM: CAPAN-1, 100.00 uM
Description: (§1) A three-day assay was conducted. A cell suspension was prepared. Cell density was counted by an automated cell counter and then diluted to the required density, according to seeding density. 50 μL cells were seeded into 384-well plate in growth medium according to the plate map. The cells were incubated at 37 °C, 5% CO2 overnight.
(§2) 200× compound solution in DMSO was prepared and diluted with growth medium to 26× final concentration by addition of 26 μL 200× compounds to 174 μL growth medium. Then 2 μL of diluted compound solution was added to cells and the cell was incubated at 37 °C, 5% CO2 for 72 h.
(§3) The assay plate was equilibrated to room temperature prior to measurement. 15 μL of CellTiter-Glo Reagent was added into each well and the contents were mixed for 2 min on an orbital shaker to induce cell lysis. The cells were incubated at room temperature for 60 min to stabilize luminescent signal. Luminescence was recorded on the Envision system.

[2] = system: MDA-MB-436 (a BRCA-1-mutated breast cancer cell line); assay: Cell proliferation assay, three-day, CellTiter-Glo, MDA-MB-436; assay type: cell-based; conditions: for inhibition at 0.00508 µM / inhibition at 0.0152 µM / inhibition at 0.0457 µM / inhibition at 0.41 µM / inhibition at 1.23 µM / inhibition at 3.7 µM / inhibition at 11.11 µM / inhibition at 33.33 µM / inhibition at 100 µM / IC50: Homo sapiens; for inhibition at 0.00508 µM: MDA-MB-436, MDA-MB-436, Conc. 0.00508 uM; for inhibition at 0.0152 µM: MDA-MB-436, MDA-MB-436, Conc. 0.0152 uM; for inhibition at 0.0457 µM: MDA-MB-436, MDA-MB-436, Conc. 0.0457 uM; for inhibition at 0.41 µM: MDA-MB-436, MDA-MB-436, Conc. 0.41 uM; for inhibition at 1.23 µM: MDA-MB-436, MDA-MB-436, Conc. 1.23 uM; for inhibition at 3.7 µM: MDA-MB-436, MDA-MB-436, Conc. 3.70 uM; for inhibition at 11.11 µM: MDA-MB-436, MDA-MB-436, Conc. 11.11 uM; for inhibition at 33.33 µM: MDA-MB-436, MDA-MB-436, Conc. 33.33 uM; for inhibition at 100 µM: MDA-MB-436, MDA-MB-436, Conc. 100.00 uM
Description: as §1, §2, §3

PARP-1 = target: T1, PARP-1 (Homo sapiens, UniProt P09874); assay: PARP-1 inhibition assay (PARP-1 Chemiluminescent Assay Kit, BPS Bioscience); assay type: biochemical; conditions: 10 nM compound
T1 construct: purchased BPS Bioscience 80569
Description: (§4) The PARP-1 and PARP-2 inhibition assays were performed in outsourcing, by a CRO company, Shanghai Medicilon Inc. (Shanghai, China). […] Briefly, PARP-1 or PARP-2 biotinylated substrate was incubated with compounds or solvent control at varying concentrations and an assay buffer containing the PARP-1 or PARP-2 enzyme.

PARP-2 = target: T2, PARP-2 (Homo sapiens, UniProt Q9UGN5); assay: PARP-2 inhibition assay (PARP-2 Chemiluminescent Assay Kit, BPS Bioscience); assay type: biochemical; conditions: 10 nM compound
T2 construct: purchased BPS Bioscience 80552
Description: as §4

[3] = CAPAN-1, 72 h, CellTiter-Glo, read-out: CAPAN-1 IC50
[4] = MDA-MB-436, 72 h, CellTiter-Glo, read-out: MDA-MB-436 IC50
[5] = supplement sheet, read-out: 10 nM inhibition% PAPR-1
[6] = read-out: PARP-1 Inhibition % (10 nM)
[7] = supplement sheet, read-out: 10 nM inhibition% PAPR-2
[8] = read-out: PARP-2 Inhibition % (10 nM)

T2 sequence (Q9UGN5 whole entry): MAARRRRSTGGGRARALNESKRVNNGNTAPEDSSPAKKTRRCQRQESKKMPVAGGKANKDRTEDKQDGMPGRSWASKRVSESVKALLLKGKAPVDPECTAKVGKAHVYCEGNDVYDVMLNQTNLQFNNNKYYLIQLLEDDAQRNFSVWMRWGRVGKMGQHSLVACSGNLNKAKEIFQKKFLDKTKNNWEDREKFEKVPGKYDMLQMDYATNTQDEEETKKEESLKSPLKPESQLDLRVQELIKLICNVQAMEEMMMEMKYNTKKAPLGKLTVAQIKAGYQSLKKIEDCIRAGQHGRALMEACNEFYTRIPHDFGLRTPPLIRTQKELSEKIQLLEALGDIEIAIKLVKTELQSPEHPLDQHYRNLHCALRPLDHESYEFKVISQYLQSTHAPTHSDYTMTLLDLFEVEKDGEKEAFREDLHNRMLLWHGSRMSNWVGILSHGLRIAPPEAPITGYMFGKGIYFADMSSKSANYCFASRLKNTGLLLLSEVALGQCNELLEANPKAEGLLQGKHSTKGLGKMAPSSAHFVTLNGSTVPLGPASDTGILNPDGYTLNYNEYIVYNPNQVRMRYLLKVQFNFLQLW
T1 sequence (P09874 whole entry): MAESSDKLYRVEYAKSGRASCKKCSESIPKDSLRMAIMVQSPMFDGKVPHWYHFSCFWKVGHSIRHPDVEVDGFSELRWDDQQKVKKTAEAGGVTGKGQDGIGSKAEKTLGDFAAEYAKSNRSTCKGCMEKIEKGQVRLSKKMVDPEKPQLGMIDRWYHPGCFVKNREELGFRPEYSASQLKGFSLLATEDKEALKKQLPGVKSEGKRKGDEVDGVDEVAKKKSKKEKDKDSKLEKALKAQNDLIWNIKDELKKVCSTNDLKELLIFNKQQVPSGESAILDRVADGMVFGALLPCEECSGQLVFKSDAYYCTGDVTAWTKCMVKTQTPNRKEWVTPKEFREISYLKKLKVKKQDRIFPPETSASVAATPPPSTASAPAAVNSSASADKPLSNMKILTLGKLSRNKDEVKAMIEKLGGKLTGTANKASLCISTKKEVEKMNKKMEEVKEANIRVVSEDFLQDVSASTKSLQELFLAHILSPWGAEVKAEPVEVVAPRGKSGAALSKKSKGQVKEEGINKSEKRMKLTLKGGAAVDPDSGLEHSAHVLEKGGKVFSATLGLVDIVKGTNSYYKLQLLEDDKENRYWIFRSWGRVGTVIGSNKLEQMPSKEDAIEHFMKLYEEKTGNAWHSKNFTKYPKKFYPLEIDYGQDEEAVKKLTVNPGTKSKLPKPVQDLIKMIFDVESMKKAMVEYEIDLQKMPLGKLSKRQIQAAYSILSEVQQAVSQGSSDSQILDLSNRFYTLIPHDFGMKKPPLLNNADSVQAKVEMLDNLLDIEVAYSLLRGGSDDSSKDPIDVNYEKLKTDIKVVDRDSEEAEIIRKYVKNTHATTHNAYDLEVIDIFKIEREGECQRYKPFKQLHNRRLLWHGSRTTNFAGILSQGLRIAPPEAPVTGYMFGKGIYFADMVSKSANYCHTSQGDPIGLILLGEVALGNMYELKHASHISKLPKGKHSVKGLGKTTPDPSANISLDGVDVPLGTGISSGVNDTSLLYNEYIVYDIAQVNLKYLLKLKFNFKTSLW

IC50 [1, 3]: 82.5 µM | IC50 ([1]; CAPAN-1, 72 h, supplement Summary sheet, read-out: IC50): 82.5 µM | IC50 ([1]; CAPAN-1, curve-fit output, concentrations in uM, read-out: IC50): 82.5 µM | IC50 [2, 4]: 55 µM | IC50 ([2]; MDA-MB-436, 72 h, supplement Summary sheet, read-out: IC50): 55 µM | IC50 ([2]; MDA-MB-436, curve fit list, no unit in the cell, concentration in uM, read-out: IC50): 55 µM | inhibition at 0.01 µM (PARP-1; [5]): -1.05% | inhibition at 0.01 µM (PARP-1; [6]): -1.1% | inhibition at 0.01 µM (PARP-2; [7]): 7.18% | inhibition at 0.01 µM (PARP-2; [8]): 7.2%
SMILES: NC(=O)c1cccc2[nH]c(C3CCN(CC(=O)c4ccccc4)C3)nc12 (stereo not drawn) [Compound 5cd, 2-(1-(2-Oxo-2-phenylethyl)pyrrolidin-3-yl)-1H-benzo[d]imidazole-4-carboxa-mide]
LogIC50 ([1]; CAPAN-1, curve-fit output, Log (uM)): 1.917 | inhibition at 0.00508 µM ([1]; replicate 1, read-out: Inh % 1): 4.6% | inhibition at 0.00508 µM ([1]; replicate 2, read-out: Inh % 2): -0.8% | inhibition at 0.0152 µM ([1]; replicate 1, read-out: Inh % 1): 2.6% | inhibition at 0.0152 µM ([1]; replicate 2, read-out: Inh % 2): -1.6% | inhibition at 0.0457 µM ([1]; replicate 1, read-out: Inh % 1): 0.6% | inhibition at 0.0457 µM ([1]; replicate 2, read-out: Inh % 2): -4.7% | inhibition at […] ([1]; replicate 1, read-out: Inh % 1): 3.7% | inhibition at […] ([1]; replicate 2, read-out: Inh % 2): -1.1% | inhibition at 0.41 µM ([1]; replicate 1, read-out: Inh % 1): 13.1% | inhibition at 0.41 µM ([1]; replicate 2, read-out: Inh % 2): 3.2% | inhibition at 1.23 µM ([1]; replicate 1, read-out: Inh % 1): 2.1% | inhibition at 1.23 µM ([1]; replicate 2, read-out: Inh % 2): 3.2% | inhibition at 3.7 µM ([1]; replicate 1, read-out: Inh % 1): 4% | inhibition at 3.7 µM ([1]; replicate 2, read-out: Inh % 2): 4.4% | inhibition at 11.11 µM ([1]; replicate 1, read-out: Inh % 1): 1% | inhibition at 11.11 µM ([1]; replicate 2, read-out: Inh % 2): 4.4% | inhibition at 33.33 µM ([1]; replicate 1, read-out: Inh % 1): 17.9% | inhibition at 33.33 µM ([1]; replicate 2, read-out: Inh % 2): 8.7% | inhibition at 100 µM ([1]; replicate 1, read-out: Inh % 1): 68% | inhibition at 100 µM ([1]; replicate 2, read-out: Inh % 2): 55.2% | inhibition at 0.00508 µM ([2]; replicate 1, read-out: Inh % 1): -0.654% | inhibition at 0.00508 µM ([2]; replicate 2, read-out: Inh % 2): -7.1% | inhibition at 0.0152 µM ([2]; replicate 1, read-out: Inh % 1): -3.7% | inhibition at 0.0152 µM ([2]; replicate 2, read-out: Inh % 2): -6.1% | inhibition at 0.0457 µM ([2]; replicate 1, read-out: Inh % 1): -6.8% | inhibition at 0.0457 µM ([2]; replicate 2, read-out: Inh % 2): -12.7% | inhibition at 0.41 µM ([2]; replicate 1, read-out: Inh % 1): -13.5% | inhibition at 0.41 µM ([2]; replicate 2, read-out: Inh % 2): -13.2% | inhibition at 1.23 µM ([2]; replicate 1, read-out: Inh % 1): -16.5% | inhibition at 1.23 µM ([2]; replicate 2, read-out: Inh % 2): -19% | inhibition at 3.7 µM ([2]; replicate 1, read-out: Inh % 1): -10.3% | inhibition at 3.7 µM ([2]; replicate 2, read-out: Inh % 2): -11.7% | inhibition at 11.11 µM ([2]; replicate 1, read-out: Inh % 1): 0.3% | inhibition at 11.11 µM ([2]; replicate 2, read-out: Inh % 2): -11% | inhibition at 33.33 µM ([2]; replicate 1, read-out: Inh % 1): 35.4% | inhibition at 33.33 µM ([2]; replicate 2, read-out: Inh % 2): 16.5% | inhibition at 100 µM ([2]; replicate 1, read-out: Inh % 1): 68.9% | inhibition at 100 µM ([2]; replicate 2, read-out: Inh % 2): 66.2% | LogIC50 ([2]; MDA-MB-436, curve fit on Log (uM) concentrations): 1.74 | Bottom ([2]; MDA-MB-436, curve fit parameter (Inh %)): -10.87 | Top ([2]; MDA-MB-436, curve fit parameter (Inh %), '= 100.0' is a constrained value): = 100.0

IC50 [1, 3]: > 100 µM | IC50 [2, 4]: > 100 µM | inhibition at 0.01 µM (PARP-1; [5]): 22% | inhibition at 0.01 µM (PARP-1; [6]): 22% | inhibition at 0.01 µM (PARP-2; [7]): 74.6% | inhibition at 0.01 µM (PARP-2; [8]): 74.5%
SMILES: NC(=O)c1cccc2[nH]c(C3CCN(CCCN4C(=O)c5ccccc5C4=O)C3)nc12 (stereo not drawn) [Compound 5ce, 2-(1-(3-(1,3-Dioxoisoindolin-2-yl)propyl)pyrrolidin-3-yl)-1H-benzo[d]imidazole-4-carboxamide]
inhibition at 0.00508 µM ([1]; replicate 1, read-out: Inh % 1): -4.4% | inhibition at 0.00508 µM ([1]; replicate 2, read-out: Inh % 2): 0.4% | inhibition at 0.0152 µM ([1]; replicate 1, read-out: Inh % 1): -2.3% | inhibition at 0.0152 µM ([1]; replicate 2, read-out: Inh % 2): -0.9% | inhibition at 0.0457 µM ([1]; replicate 1, read-out: Inh % 1): 1.8% | inhibition at 0.0457 µM ([1]; replicate 2, read-out: Inh % 2): 10% | inhibition at […] ([1]; replicate 1, read-out: Inh % 1): -0.6% | inhibition at […] ([1]; replicate 2, read-out: Inh % 2): -2.2% | inhibition at 0.41 µM ([1]; replicate 1, read-out: Inh % 1): 12.8% | inhibition at 0.41 µM ([1]; replicate 2, read-out: Inh % 2): 3.7% | inhibition at 1.23 µM ([1]; replicate 1, read-out: Inh % 1): 7.5% | inhibition at 1.23 µM ([1]; replicate 2, read-out: Inh % 2): 3.7% | inhibition at 3.7 µM ([1]; replicate 1, read-out: Inh % 1): 6.8% | inhibition at 3.7 µM ([1]; replicate 2, read-out: Inh % 2): 9.9% | inhibition at 11.11 µM ([1]; replicate 1, read-out: Inh % 1): 13.7% | inhibition at 11.11 µM ([1]; replicate 2, read-out: Inh % 2): -0.541% | inhibition at 33.33 µM ([1]; replicate 1, read-out: Inh % 1): 11% | inhibition at 33.33 µM ([1]; replicate 2, read-out: Inh % 2): 3.9% | inhibition at 100 µM ([1]; replicate 1, read-out: Inh % 1): 6.1% | inhibition at 100 µM ([1]; replicate 2, read-out: Inh % 2): 4.5% | inhibition at 0.00508 µM ([2]; replicate 1, read-out: Inh % 1): 20.1% | inhibition at 0.00508 µM ([2]; replicate 2, read-out: Inh % 2): 0.9% | inhibition at 0.0152 µM ([2]; replicate 1, read-out: Inh % 1): -2.8% | inhibition at 0.0152 µM ([2]; replicate 2, read-out: Inh % 2): -5% | inhibition at 0.0457 µM ([2]; replicate 1, read-out: Inh % 1): -11.2% | inhibition at 0.0457 µM ([2]; replicate 2, read-out: Inh % 2): -11.9% | inhibition at 0.41 µM ([2]; replicate 1, read-out: Inh % 1): -6.1% | inhibition at 0.41 µM ([2]; replicate 2, read-out: Inh % 2): -15.6% | inhibition at 1.23 µM ([2]; replicate 1, read-out: Inh % 1): -8.9% | inhibition at 1.23 µM ([2]; replicate 2, read-out: Inh % 2): -17.5% | inhibition at 3.7 µM ([2]; replicate 1, read-out: Inh % 1): -1.2% | inhibition at 3.7 µM ([2]; replicate 2, read-out: Inh % 2): -9.2% | inhibition at 11.11 µM ([2]; replicate 1, read-out: Inh % 1): 15.7% | inhibition at 11.11 µM ([2]; replicate 2, read-out: Inh % 2): -2.9% | inhibition at 33.33 µM ([2]; replicate 1, read-out: Inh % 1): -10.9% | inhibition at 33.33 µM ([2]; replicate 2, read-out: Inh % 2): -11% | inhibition at 100 µM ([2]; replicate 1, read-out: Inh % 1): 0.113% | inhibition at 100 µM ([2]; replicate 2, read-out: Inh % 2): -9.4%

Source: publication PMC6572064, “Discovery of 2-(1-(3-(4-Chloroxyphenyl)-3-oxo- propyl)pyrrolidine-3-yl)-1H-benzo[d]imidazole-4-carboxamide: A Potent Poly(ADP-ribose) Polymerase (PARP) Inhibitor for Treatment of Cancer” (Molecules, 2019)
